From US20110301370A1, “METHOD FOR PREPARING OREGANIC ACID” (CONSEJO SUPERIOR DE INVESTIGACIONES CIENTÍFICAS, priority 2008, published 2011)

O=C(O)C/C(C(=O)O)=C(\CCCCCCCCCCCCCCCCOS(=O)(=O)O)C(=O)O [1-Z, (Z)-3,4-dicarboxy-20-sulfooxy-3-eicosenoic acid] gave a melting point of 63 to 65 °C.
